What all share (assay): Kinase assay, binding constants (Kd), kinase-tagged T7 phage, qPCR
On the technique in general: In qPCR the cycle at which signal appears reflects the starting amount.

For assay [1], the target named is FGFR3 (V555M) (Homo sapiens (Human), UniProt P22607, V555M). As to conditions: V555M mutant. In short, it runs like this: (§1)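 Competition binding: kinase-tagged T7 phage lysates mixed with immobilized biotinylated ligand on streptavidin beads plus compound (11-point 3-fold dilution series, 0.9% DMSO final). Bound kinase eluted with free ligand and quantified by qPCR. Kd from Hill equation fit, slope fixed at −1.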

Assay [2] addresses FGFR4 (Homo sapiens (Human), UniProt P22455). In short, it runs like this:
as §1

The target of assay [3] is FGFR1 (Homo sapiens (Human), UniProt P11362). In short, it runs like this:
as §1

Assay [4] has as its target FGFR3 (Homo sapiens (Human), UniProt P22607). In short, it runs like this: as §1
The target of assay [5] is FGFR2 (Homo sapiens (Human), UniProt P21802). The method, boiled down:
as §1

Structures are written as SMILES. Like-named read-outs stand apart in the source and are kept apart here. Bounds are passed on as bounds.

FGFR3, sequence (P22607 23-806): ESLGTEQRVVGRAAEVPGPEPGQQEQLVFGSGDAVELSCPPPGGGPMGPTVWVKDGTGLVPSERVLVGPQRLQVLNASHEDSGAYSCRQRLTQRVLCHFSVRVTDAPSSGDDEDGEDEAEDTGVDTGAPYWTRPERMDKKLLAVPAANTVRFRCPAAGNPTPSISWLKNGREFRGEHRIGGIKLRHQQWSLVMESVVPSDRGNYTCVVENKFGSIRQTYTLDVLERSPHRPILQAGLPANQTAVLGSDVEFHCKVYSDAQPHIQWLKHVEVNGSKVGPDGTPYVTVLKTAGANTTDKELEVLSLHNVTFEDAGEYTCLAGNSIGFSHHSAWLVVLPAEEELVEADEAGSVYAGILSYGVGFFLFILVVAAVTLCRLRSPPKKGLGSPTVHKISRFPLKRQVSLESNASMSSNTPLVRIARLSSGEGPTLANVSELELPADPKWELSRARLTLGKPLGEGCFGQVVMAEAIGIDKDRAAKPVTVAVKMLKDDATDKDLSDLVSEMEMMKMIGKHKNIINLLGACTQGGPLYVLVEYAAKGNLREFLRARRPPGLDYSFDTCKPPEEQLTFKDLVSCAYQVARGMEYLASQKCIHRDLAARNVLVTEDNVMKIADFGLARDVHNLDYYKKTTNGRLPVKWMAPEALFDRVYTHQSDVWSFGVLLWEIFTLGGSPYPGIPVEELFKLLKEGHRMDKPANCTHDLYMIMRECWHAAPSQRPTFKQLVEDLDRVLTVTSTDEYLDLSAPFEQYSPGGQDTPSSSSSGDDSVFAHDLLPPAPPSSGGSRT
FGFR3 (V555M), sequence (P22607 23-806 V555M): as the sequence (P22607 23-806) above, with V533M counted along it
FGFR2, sequence (P21802 22-821): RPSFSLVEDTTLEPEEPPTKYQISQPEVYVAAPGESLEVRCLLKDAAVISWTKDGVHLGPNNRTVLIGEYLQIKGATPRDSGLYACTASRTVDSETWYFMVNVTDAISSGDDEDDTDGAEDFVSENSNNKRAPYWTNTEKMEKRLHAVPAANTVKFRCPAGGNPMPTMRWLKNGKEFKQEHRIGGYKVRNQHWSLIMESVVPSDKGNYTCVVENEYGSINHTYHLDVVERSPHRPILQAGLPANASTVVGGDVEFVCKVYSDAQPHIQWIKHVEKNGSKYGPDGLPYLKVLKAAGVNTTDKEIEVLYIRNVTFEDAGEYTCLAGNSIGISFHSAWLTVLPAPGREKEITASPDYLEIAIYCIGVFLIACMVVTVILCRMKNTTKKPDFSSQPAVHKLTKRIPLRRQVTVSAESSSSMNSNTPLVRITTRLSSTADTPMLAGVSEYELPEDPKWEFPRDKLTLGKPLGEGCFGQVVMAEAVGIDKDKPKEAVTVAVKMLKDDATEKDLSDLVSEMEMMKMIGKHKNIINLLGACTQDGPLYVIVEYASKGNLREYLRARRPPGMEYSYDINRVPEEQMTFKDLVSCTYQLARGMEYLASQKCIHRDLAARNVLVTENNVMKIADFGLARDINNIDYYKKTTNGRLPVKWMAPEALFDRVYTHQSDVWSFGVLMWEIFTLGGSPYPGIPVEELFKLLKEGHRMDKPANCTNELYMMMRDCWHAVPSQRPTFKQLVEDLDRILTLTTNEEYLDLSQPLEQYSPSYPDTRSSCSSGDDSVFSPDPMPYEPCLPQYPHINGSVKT
FGFR4, sequence (P22455 22-802): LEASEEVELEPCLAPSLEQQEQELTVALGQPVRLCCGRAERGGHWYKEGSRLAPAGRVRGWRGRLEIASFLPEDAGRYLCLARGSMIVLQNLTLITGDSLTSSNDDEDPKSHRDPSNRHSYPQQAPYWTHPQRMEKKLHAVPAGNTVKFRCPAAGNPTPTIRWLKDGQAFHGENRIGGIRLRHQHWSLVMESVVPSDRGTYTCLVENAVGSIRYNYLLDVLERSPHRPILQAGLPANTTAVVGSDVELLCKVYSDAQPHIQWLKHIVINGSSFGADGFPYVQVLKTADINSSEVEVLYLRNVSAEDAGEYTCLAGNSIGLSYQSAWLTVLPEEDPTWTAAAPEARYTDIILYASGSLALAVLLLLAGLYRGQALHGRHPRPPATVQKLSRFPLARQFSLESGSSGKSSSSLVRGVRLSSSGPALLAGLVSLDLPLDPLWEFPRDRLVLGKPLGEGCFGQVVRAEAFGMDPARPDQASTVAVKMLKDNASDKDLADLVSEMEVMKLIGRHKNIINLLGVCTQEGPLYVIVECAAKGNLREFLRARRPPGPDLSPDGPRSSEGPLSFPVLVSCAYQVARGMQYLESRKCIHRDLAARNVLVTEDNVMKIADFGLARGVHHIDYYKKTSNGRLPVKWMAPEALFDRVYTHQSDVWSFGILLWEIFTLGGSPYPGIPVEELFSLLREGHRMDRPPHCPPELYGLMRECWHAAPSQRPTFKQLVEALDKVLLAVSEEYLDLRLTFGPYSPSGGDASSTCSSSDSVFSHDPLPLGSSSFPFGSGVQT
FGFR1, sequence (P11362 22-822): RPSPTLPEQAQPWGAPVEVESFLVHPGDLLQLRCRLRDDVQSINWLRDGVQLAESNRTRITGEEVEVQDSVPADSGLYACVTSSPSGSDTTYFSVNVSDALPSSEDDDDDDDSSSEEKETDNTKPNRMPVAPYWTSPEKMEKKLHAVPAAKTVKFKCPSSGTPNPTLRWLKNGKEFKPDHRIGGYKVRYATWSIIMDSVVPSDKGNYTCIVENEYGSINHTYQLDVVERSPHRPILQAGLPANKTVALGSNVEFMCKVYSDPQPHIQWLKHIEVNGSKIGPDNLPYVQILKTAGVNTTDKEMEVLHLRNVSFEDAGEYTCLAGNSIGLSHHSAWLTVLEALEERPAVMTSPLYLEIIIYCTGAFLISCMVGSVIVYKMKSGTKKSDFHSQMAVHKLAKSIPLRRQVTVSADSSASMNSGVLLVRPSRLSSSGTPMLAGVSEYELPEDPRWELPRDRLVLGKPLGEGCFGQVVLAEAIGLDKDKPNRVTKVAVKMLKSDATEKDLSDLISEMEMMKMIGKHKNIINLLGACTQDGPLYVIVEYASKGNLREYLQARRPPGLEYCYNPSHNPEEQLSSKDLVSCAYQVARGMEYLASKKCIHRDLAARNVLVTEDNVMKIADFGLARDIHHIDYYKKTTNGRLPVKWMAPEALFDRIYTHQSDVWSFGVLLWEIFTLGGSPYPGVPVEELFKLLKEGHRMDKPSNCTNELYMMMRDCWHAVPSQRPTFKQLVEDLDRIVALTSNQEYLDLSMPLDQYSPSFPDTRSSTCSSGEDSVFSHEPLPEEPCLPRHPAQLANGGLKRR

As to `COc1cc2[nH]nc(-c3cnc(N4CC5(CCCS(=O)(=O)C5)C4)c(C#N)c3)c2cc1O[C@H](C)c1c(Cl)cncc1Cl` [Example 346, (R)-5-(5-(1-(3,5-dichloropyridin-4-yl)ethoxy)-6-methoxy-1H-indazol-3-yl)-2-(6,6-dioxido-6-thia-2-azaspiro[3.5]nonan-2-yl)nicotinonitrile], the Kd in assay [1], in assay [2], in assay [3], in assay [4] and in assay [5] was 1 to 20 nM each time.
With `C[C@@H](Oc1ccc2[nH]nc(-c3cnc(N4CC(C(F)(F)F)C4)c(C#N)c3)c2c1)c1c(Cl)cncc1Cl` [Example 347, (R)-5-(5-(1-(3,5-dichloropyridin-4-yl)ethoxy)-1H-indazol-3-yl)-2-(3-(trifluoromethyl)azetidin-1-yl)nicotinonitrile], the dissociation constant Kd (commonly a measure of binding affinity in units of concentration) was 20 to 100 nM in assay [1]; 1 to 20 nM in assay [2]; greater than 300 nM in assay [3]; 20 to 100 nM in assay [4]; greater than 300 nM in assay [5].
Consider `C[C@@H](Oc1ccc2[nH]nc(-c3cnc(N4CC(C#N)C4)c(C#N)c3)c2c1)c1c(Cl)cncc1Cl` [Example 348, (R)-2-(3-cyanoazetidin-1-yl)-5-(5-(1-(3,5-dichloropyridin-4-yl)ethoxy)-1H-indazol-3-yl)nicotinonitrile], for which the Kd in assay [1] is 1 to 20 nM; in assay [2], 1 to 20 nM; in assay [3], 20 to 100 nM; in assay [4], 1 to 20 nM; in assay [5] it was greater than 300 nM.
Take `Cc1ncc(Cl)c([C@@H](C)Oc2ccc3[nH]nc(-c4cnc(N5CC6(CCCS(=O)(=O)C6)C5)c(C#N)c4)c3c2)c1Cl` [Example 349, 5-[5-[(1R)-1-(3,5-dichloro-2-methyl-4-pyridyl)ethoxy]-1H-indazol-3-yl]-2-(6,6-dioxo-6λ^6-thia-2-azaspiro[3.5]nonan-2-yl)pyridine-3-carbonitrile]: the Kd was in the range of 1 to 20 nM in assay [1]; 1 to 20 nM in assay [2]; 100 to 300 nM in assay [3]; 20 to 100 nM in assay [4]; 100 to 300 nM in assay [5].
As to `Cc1ncc(Cl)c([C@@H](C)Oc2ccc3[nH]nc(-c4cnc(N5CC6(CCCN(S(C)(=O)=O)C6)C5)c(C#N)c4)c3c2)c1Cl` [Example 350, 5-[5-[(1R)-1-(3,5-dichloro-2-methyl-4-pyridyl)ethoxy]-1H-indazol-3-yl]-2-(8-methylsulfonyl-2,8-diazaspiro[3.5]nonan-2-yl)pyridine-3-carbonitrile], the Kd is 20 to 100 nM in assay [1]; 1 to 20 nM in assay [2]; greater than 300 nM in assay [3]; 90 nM in assay [4] (given as a number); 100 to 300 nM in assay [5].
On to `C[C@@H](Oc1ccc2[nH]nc(-c3cnc(N4CC[C@@H]4CO)c(C#N)c3)c2c1)c1c(Cl)cncc1Cl` [Example 351, 5-(5-((R)-1-(3,5-dichloropyridin-4-yl)ethoxy)-1H-indazol-3-yl)-2-((R)-2-(hydroxymethyl)azetidin-1-yl)nicotinonitrile], for which the equilibrium dissociation constant (Kd) in assay [1] was 1 to 20 nM; in assay [2] it was 1 to 20 nM; in assay [3], 20 to 100 nM; in assay [4], 1 to 20 nM; in assay [5], 100 to 300 nM.
Regarding `Cc1cc2[nH]nc(-c3cnc(N4CC5(C4)CN(S(C)(=O)=O)C5)c(C#N)c3)c2cc1O[C@H](C)c1c(Cl)cncc1Cl` [Example 352, (R)-5-(5-(1-(3,5-dichloropyridin-4-yl)ethoxy)-6-methyl-1H-indazol-3-yl)-2-(6-(methylsulfonyl)-2,6-diazaspiro[3.3]heptan-2-yl)nicotinonitrile], the Kd in assay [1] is 1 to 20 nM; in assay [2], 1 to 20 nM; in assay [3], 20 to 100 nM; in assay [4], 1 to 20 nM; in assay [5], 100 to 300 nM.
On to `C[C@@H](Oc1ccc2[nH]nc(-c3cnc(N4CC(F)(F)C4)c(C#N)c3)c2c1)c1c(Cl)cncc1Cl` [Example 353, (R)-5-(5-(1-(3,5-dichloropyridin-4-yl)ethoxy)-1H-indazol-3-yl)-2-(3,3-difluoroazetidin-1-yl)nicotinonitrile], for which the Kd in assay [1] is 20 to 100 nM; in assay [2], 1 to 20 nM; in assay [3], greater than 300 nM; in assay [4] it was 20 to 100 nM; in assay [5] it was greater than 300 nM.
For `C[C@@H](Oc1ccc2[nH]nc(-c3cnc(N4CC[C@H]4CO)c(C#N)c3)c2c1)c1c(Cl)cncc1Cl` [Example 354, 5-(5-((R)-1-(3,5-dichloropyridin-4-yl)ethoxy)-1H-indazol-3-yl)-2-((S)-2-(hydroxymethyl)azetidin-1-yl)nicotinonitrile], the dissociation constant Kd in assay [1] lay within 1 to 20 nM; in assay [2] it was 1 to 20 nM; in assay [3], 20 to 100 nM; in assay [4], 1 to 20 nM; in assay [5], 20 to 100 nM.
For the molecule `C[C@@H](Oc1cc2c(-c3cnc(N4CC5(C4)CN(S(C)(=O)=O)C5)c(C#N)c3)n[nH]c2cc1F)c1c(Cl)cncc1Cl` [Example 355, (R)-5-(5-(1-(3,5-dichloropyridin-4-yl)ethoxy)-6-fluoro-1H-indazol-3-yl)-2-(6-(methylsulfonyl)-2,6-diazaspiro[3.3]heptan-2-yl)nicotinonitrile], the Kd in assay [1] is 1 to 20 nM; in assay [2], 1 to 20 nM; in assay [3] it was 1 to 20 nM; in assay [4], 1 to 20 nM; in assay [5], 20 to 100 nM.
`C[C@@H](Oc1ccc2[nH]nc(-c3cnc(N4CC5(C4)CN(S(C)(=O)=O)C5)c(CN(C)C)c3)c2c1)c1c(Cl)cncc1Cl` [Example 356, (R)-1-(5-(5-(1-(3,5-dichloropyridin-4-yl)ethoxy)-1H-indazol-3-yl)-2-(6-(methylsulfonyl)-2,6-diazaspiro[3.3]heptan-2-yl)pyridin-3-yl)-N,N-dimethylmethanamine]: the Kd is 100 to 300 nM in assay [1]; 20 to 100 nM in assay [2]; greater than 300 nM in assay [3]; greater than 300 nM in assay [4]; greater than 300 nM in assay [5].
`COc1cc2[nH]nc(-c3cnc(N4CC5(C4)CN(S(C)(=O)=O)C5)c(CN(C)C)c3)c2cc1O[C@H](C)c1c(Cl)cncc1Cl` [Example 357, (R)-1-(5-(5-(1-(3,5-dichloropyridin-4-yl)ethoxy)-6-methoxy-1H-indazol-3-yl)-2-(6-(methylsulfonyl)-2,6-diazaspiro[3.3]heptan-2-yl)pyridin-3-yl)-N,N-dimethylmethanamine]: the Kd in assay [1] was 20 to 100 nM; in assay [2], 1 to 20 nM; in assay [3], greater than 300 nM; in assay [4], 100 to 300 nM; in assay [5], greater than 300 nM.
On to `C[C@@H](Oc1ccc2[nH]nc(-c3cnc(N4CC(C)(N)C4)c(C#N)c3)c2c1)c1c(Cl)cncc1Cl` [Example 358, (R)-2-(3-amino-3-methylazetidin-1-yl)-5-(5-(1-(3,5-dichloropyridin-4-yl)ethoxy)-1H-indazol-3-yl)nicotinonitrile], for which the dissociation constant Kd in assay [1] was 1 to 20 nM; in assay [2] it was 1 to 20 nM; in assay [3], 20 to 100 nM; in assay [4], 1 to 20 nM; in assay [5], 100 to 300 nM.
In the case of `C[C@@H](Oc1cc2c(-c3cnc(N4CC5(C4)CN(S(C)(=O)=O)C5)c(C#N)c3)n[nH]c2cc1Cl)c1c(Cl)cncc1Cl` [Example 359, (R)-5-(6-chloro-5-(1-(3,5-dichloropyridin-4-yl)ethoxy)-1H-indazol-3-yl)-2-(6-(methylsulfonyl)-2,6-diazaspiro[3.3]heptan-2-yl)nicotinonitrile], the dissociation constant (Kd) in assay [1] is greater than 300 nM; in assay [2], 1 to 20 nM; in assay [3], 20 to 100 nM; in assay [4] it was 1 to 20 nM; in assay [5], 20 to 100 nM.
For the molecule `COc1cc2[nH]nc(-c3cnc(N4CCC4)c(C#N)c3)c2cc1O[C@H](C)c1c(Cl)cnnc1Cl` [Example 360, (R)-2-(azetidin-1-yl)-5-(5-(1-(3,5-dichloropyridazin-4-yl)ethoxy)-6-methoxy-1H-indazol-3-yl)nicotinonitrile], the Kd in assay [1] is greater than 300 nM; in assay [2], 1 to 20 nM; in assay [3], 100 to 300 nM; in assay [4] it was 20 to 100 nM; in assay [5], 20 to 100 nM.
Take `C[C@@H](Oc1ccc2[nH]nc(-c3cnc(N4CCC4)c(C#N)c3)c2c1)c1c(Cl)cnnc1Cl` [Example 361, (R)-2-(azetidin-1-yl)-5-(5-(1-(3,5-dichloropyridazin-4-yl)ethoxy)-1H-indazol-3-yl)nicotinonitrile]: the Kd in assay [1] was 100 to 300 nM; in assay [2] it was 1 to 20 nM; in assay [3], greater than 300 nM; in assay [4], 100 to 300 nM; in assay [5], 100 to 300 nM.
With `C[C@@H](Oc1cc2c(-c3cnc(N4CC5(CCCS(=O)(=O)C5)C4)c(C#N)c3)n[nH]c2cc1F)c1c(Cl)cncc1Cl` [Example 362], the Kd fell in the range of 1 to 20 nM in assay [1]; 1 to 20 nM in assay [2]; 20 to 100 nM in assay [3]; 1 to 20 nM in assay [4]; 100 to 300 nM in assay [5].
On to `C[C@@H](Oc1ccc2[nH]nc(-c3cnc(N4CCC4CN(C)C)c(C#N)c3)c2c1)c1c(Cl)cncc1Cl` (stereo partly drawn) [Example 363, 5-(5-((R)-1-(3,5-dichloropyridin-4-yl)ethoxy)-1H-indazol-3-yl)-2-(2-((dimethylamino)methyl)azetidin-1-yl)nicotinonitrile], for which the Kd in assay [1], in assay [2], in assay [3], in assay [4] and in assay [5] was greater than 300 nM throughout.
Turning to `C[C@@H](Oc1cc2c(-c3cnc(N4CC(C)(C)C4)c(C#N)c3)n[nH]c2cc1Cl)c1c(Cl)cncc1Cl` [Example 364, (R)-5-(6-chloro-5-(1-(3,5-dichloropyridin-4-yl)ethoxy)-1H-indazol-3-yl)-2-(3,3-dimethylazetidin-1-yl)nicotinonitrile], the Kd was 1 to 20 nM in assay [1]; 20 to 100 nM in assay [2]; 20 to 100 nM in assay [3]; 1 to 20 nM in assay [4]; 1 to 20 nM in assay [5].

Values taken from US20240109865A1, “INDAZOLE COMPOUNDS AS KINASE INHIBITORS” (TYRA BIOSCIENCES, INC., priority 2020, published 2024).
